Key:
CB1R [1] = target: T1, CB1R (Rattus norvegicus, UniProt P20272); assay: [3H]WIN55,212-2 radioligand competition binding assay in rat brain membrane homogenate; settings: for Ki: read-out: Ki [3H]WIN55,212-2 binding, 5 nM [3H]WIN55,212-2, ± SEM, n.b. = no binding of ligands was observed; for Ki [3H]WIN55,212-2 binding: 5 nM [3H]WIN55,212-2, ± SEM, n.b. = no binding of ligands was observed
T1 construct: Crude membrane fractions were prepared from the brain; from tissue; host or cells: Wistar rat whole brain, crude membrane fraction
Protocol: (§1) Our novel chemical compounds were tested in vitro for their binding ability, efficacy, and potency on CB1R in rat brain membrane homogenate (Table 2 and SI, Figure S1). CB1Rs are the most abundant G-protein coupled receptors in the rodent and mammalian brain; therefore, this is an appropriate model to characterize our ligands in a more physiological system.
(§2) In Vitro Biological Assays
(§3) Preparation of Brain Membrane Homogenates
(§4) Wistar rats were locally bred and handled according to the EU Directive 2010/63/EU and to the Regulations on Animal Protection (40/2013. (II. 14.) Korm. r.) of Hungary. Crude membrane fractions were prepared from the brain. Brains were quickly removed from the euthanized rats and directly put in an ice-cold 50 mM Tris-HCl buffer (pH 7.4). The collected tissue was then homogenized in 30 volumes (v/w) of an ice-cold buffer with a Braun Teflon-glass homogenizer at the highest rpm. The homogenate was centrifuged at 20,000 × g for 25 min, and the resulting pellet was suspended in the same volume of a cold buffer followed by incubation at 37 °C for 30 min to remove endogenous ligands. Centrifugation was then repeated. The final pellets were taken up in five volumes of a 50 mM Tris-HCl (pH 7.4) buffer containing 0.32 M sucrose and stored at -80 °C. Prior to the experiment, aliquots were thawed and centrifuged at 20,000 ×g for 25 min and then they were resuspended in 50 mM Tris-HCl (pH 7.4), homogenized with a Douncer, followed by the determination of the protein concentration by the method of Bradford. The membrane suspensions were immediately used either in radioligand binding experiments or in [35S]GTPγS functional assays.
Radioligand Competition Binding Assay
Binding experiments were performed at 30 °C for 60 min in a 50 mM Tris-HCl binding buffer (pH 7.4) containing 2.5 mM of EGTA, 5 mM of MgCl2 and 0.5 mg/mL of fatty acid-free BSA in plastic tubes in a total assay volume of 1 mL that contained 0.3-0.5 mg/mL of a membrane protein. Competition binding […]
ligands. […] The incubation […]
was terminated by diluting the samples with an ice-cold wash buffer (50 mM of Tris-HCl, 2.5 mM of EGTA, 5 mM of MgCl2, 0.5% fatty acid free BSA, pH 7.4), followed by repeated washing and rapid filtration through Whatman GF/B glass fiber filters (Whatman Ltd., Maidstone, UK) pre-soaked with 0.1% polyethyleneimine (30 min before the filtration). Filtration was performed with a 24-well Brandel Cell Harvester (Gaithersburg, MD, USA). Filters were air-dried and immersed into Ultima Gold MV scintillation cocktail, and then radioactivity was measured with a TRI-CARB 2100TR liquid scintillation analyzer (Packard, Perkin Elmer, Waltham, MA, USA). […]
The results of the competition binding studies are reported as means ± S.E.M. of at least three independent experiments each performed in duplicate. In competition binding studies, the inhibitory constants (Ki) were calculated from the inflection points of the displacement curves using non-linear least-square curve fitting and the Cheng-Prusoff equation, Ki= […]/(1 + [ligand]/Kd). […]

CB1R [2] = target: T1, CB1R; assay: Ligand stimulated [35S]GTPγS binding assay in rat brain membranes; type: biochemical; settings: for EC50 / CB1R functional profile (agonist / antagonist / inverse agonist): rat brain membranes; for EC50: ± SEM, read-out: [35S]GTPγS stimulation EC50; for Emax: read-out: [35S]GTPγS stimulation Emax; for CB1R functional profile (agonist / antagonist / inverse agonist): from [35S]GTPγS binding
Protocol: as §1, §2, §3
as §4, with “assays. […]” for “assays.”
was terminated by diluting the samples with an ice-cold wash buffer (50 mM of Tris-HCl, 2.5 mM of EGTA, 5 mM of MgCl2, 0.5% fatty acid free BSA, pH 7.4), followed by repeated washing and rapid filtration through Whatman GF/B glass fiber filters (Whatman Ltd., Maidstone, UK) pre-soaked with 0.1% polyethyleneimine (30 min before the filtration). Filtration was performed with a 24-well Brandel Cell Harvester (Gaithersburg, MD, USA). Filters were air-dried and immersed into Ultima Gold MV scintillation cocktail, and then radioactivity was measured with a TRI-CARB 2100TR liquid scintillation analyzer (Packard, Perkin Elmer, Waltham, MA, USA).
Ligand Stimulated [35S]GTPγS Binding Assay
Rat brain membranes (30 µg protein/tube), prepared as described above, were incubated with 0.05 nM of […]
mM of NaCl, 3 mM of MgCl2 and 1 mM of EGTA in a 50 mM Tris-HCl buffer (pH 7.4) for 60 min at 30 °C. Basal [35S]GTPγS binding was measured in the absence of ligands and set as 100%. Nonspecific […]
binding was determined by the addition of 10 µM unlabelled GTPγS and subtracted from total binding.
Incubation, filtration and radioactivity measurements of the samples were carried out as described above. […]
All […]
data and curves were analyzed by GraphPad Prism 5.0 (San Diego, CA, USA).

T1 sequence (P20272 whole entry): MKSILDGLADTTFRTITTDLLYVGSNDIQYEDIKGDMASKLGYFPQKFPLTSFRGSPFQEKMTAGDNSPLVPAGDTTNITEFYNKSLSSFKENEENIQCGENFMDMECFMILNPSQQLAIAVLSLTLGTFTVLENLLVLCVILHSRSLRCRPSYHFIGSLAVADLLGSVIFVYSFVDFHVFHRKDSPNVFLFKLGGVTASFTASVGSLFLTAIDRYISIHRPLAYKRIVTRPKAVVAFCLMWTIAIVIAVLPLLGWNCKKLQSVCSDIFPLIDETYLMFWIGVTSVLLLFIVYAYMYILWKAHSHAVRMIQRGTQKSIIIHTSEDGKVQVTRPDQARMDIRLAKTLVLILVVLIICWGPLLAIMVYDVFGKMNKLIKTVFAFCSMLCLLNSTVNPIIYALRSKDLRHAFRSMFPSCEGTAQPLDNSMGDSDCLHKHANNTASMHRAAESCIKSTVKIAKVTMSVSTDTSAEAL

SMILES	Ki (CB1R [1])	EC50 (CB1R [2])	Emax (CB1R [2])	Ki [3H]WIN55,212-2 binding (CB1R [1])	CB1R functional profile (agonist / antagonist / inverse agonist) (CB1R [2])
CC(C)(C)[C@H](NC(=O)c1cc(-n2cccc2)n(-c2ccccc2)n1)C(N)=O [Compound 16, RS2708-tLeu-NH2]	1470 ± 103 nM	295 ± 38 nM			
Cc1c(C(=O)N[C@H](C(N)=O)C(C)C)nn(-c2ccccc2)c1-n1cccc1 [Compound 17, RS2709-Val-NH2]	1060 ± 72 nM	4240 ± 377 nM			
COC(=O)[C@@H](NC(=O)c1nn(-c2ccc(Cl)cc2)c(-n2cccc2)c1C)C(C)C [Compound 23, RS2691-Val-OCH3]	55 ± 5.2 nM	4870 ± 225 nM			
COC(=O)[C@@H](NC(=O)c1cc(-n2cccc2)n(-c2ccccc2)n1)C(C)C [Compound 25, RS2708-Val-OCH3]	1360 ± 16 nM	468 ± 22 nM			
COC(=O)[C@@H](NC(=O)c1nn(-c2ccccc2)c(-n2cccc2)c1C)C(C)C [Compound 27, RS2709-Val-OCH3]	449 ± 15 nM	2080 ± 129 nM			
COC(=O)[C@@H](NC(=O)c1nn(-c2ccccc2)c(-n2cccc2)c1C)C(C)(C)C [Compound 28, RS2709-tLeu-OCH3]	369 ± 19 nM	1030 ± 117 nM	55 ± 5%		
COC(=O)[C@@H](NC(=O)c1nn(-c2ccc(Cl)cc2Cl)c(-n2cccc2Cl)c1C)C(C)(C)C [Compound 30, RS3516-tLeu-OCH3]	21 ± 4.4 nM	4390 ± 344 nM			
CNC(=O)[C@@H](NC(=O)c1cc(-n2cccc2)n(-c2ccc(Cl)cc2)n1)C(C)C [Compound 31, RS2689-Val-NHCH3]	387 ± 33 nM	601 ± 21 nM		modest affinity	weak inverse agonist
CNC(=O)[C@@H](NC(=O)c1cc(-n2cccc2)n(-c2ccc(Cl)cc2)n1)C(C)(C)C [Compound 32, RS2689-tLeu-NHCH3]	42 ± 2.9 nM	389 ± 51 nM	120 ± 2%		agonist
CNC(=O)[C@@H](NC(=O)c1nn(-c2ccc(Cl)cc2)c(-n2cccc2)c1C)C(C)C [Compound 33, RS2691-Val-NHCH3]	168 ± 16 nM				antagonists
CNC(=O)[C@@H](NC(=O)c1cc(-n2cccc2)n(-c2ccccc2)n1)C(C)C [Compound 35, RS2708-Val-NHCH3]	7940 ± 266 nM	2460 ± 240 nM		modest affinity	weak inverse agonist
CNC(=O)[C@@H](NC(=O)c1cc(-n2cccc2)n(-c2ccccc2)n1)C(C)(C)C [Compound 36, RS2708-tLeu-NHCH3]	616 ± 16 nM				antagonists
CNC(=O)[C@@H](NC(=O)c1nn(-c2ccccc2)c(-n2cccc2)c1C)C(C)C [Compound 37, RS2709-Val-NHCH3]	1060 ± 85 nM	7080 ± 398 nM	55 ± 9%	modest affinity	weak inverse agonist
CNC(=O)[C@@H](NC(=O)c1nn(-c2ccccc2)c(-n2cccc2)c1C)C(C)(C)C [Compound 38, RS2709-tLeu-NHCH3]	42 ± 3.9 nM		102 ± 2%		antagonists
CNC(=O)[C@@H](NC(=O)c1nn(-c2ccc(Cl)cc2Cl)c(-n2cccc2Cl)c1C)C(C)C [Compound 39, RS3516-Val-NHCH3]	185 ± 17 nM	3540 ± 193 nM		modest affinity	weak inverse agonist

— paper PMC10108392, “Rimonabant-Based Compounds Bearing Hydrophobic Amino Acid Derivatives as Cannabinoid Receptor Subtype 1 Ligands” (ACS Medicinal Chemistry Letters, 2023)
